Results from US20250195534A1 (AXSOME THERAPEUTICS, INC., priority 2022, published 2025).

Experiment: Phase 3 randomized, double-blind, placebo- and active-controlled trial of meloxicam/rizatriptan in acute treatment of migraine (Example 1, MOMENTUM)
[1] = treatment-emergent adverse event

In the case of `CN(C)CCc1c[nH]c2ccc(Cn3cncn3)cc12` [Rizatriptan], the “proportion of patients experiencing pain relief” value ([…] after dosing, single dose) is reported as 52.5%, the “percentage of patients experiencing sustained pain relief” value (from 2 hours to 24 hours after dosing) is reported as 43.9% and the “proportion of patients with sustained pain freedom” value (from 2 hours to 48 hours) is reported as 8.8%. For the same compound, the “Any Treatment-Emergent Adverse Event, number of subjects” value (single dose) was 67 subjects, the “Dizziness, % of subjects” value [1] was 2.1% and the “Dizziness, number of subjects” value [1] was 9 subjects. For the same compound, the “Nausea, % of subjects” value [1] was 4.8%, the “Nausea, number of subjects” value [1] was 21 subjects and the “Somnolence, % of subjects” value [1] was 2.1%. For the same compound, the “Somnolence, number of subjects” value [1] was 9 subjects.
